The values below come from patent US4339580A, “Piperazinylalkoxyindanes and acid addition salts thereof” (Mitsubishi Chemical Industries, Limited, priority 1979, dated 1982).

The term ED50 denotes the dose at which the effect has come halfway, by size or by number of responders. The LD50 is the dose expected to kill half of the subjects tested. A low value points to greater toxicity.

Data set [1] concerns tail reaction induced by morphine. The data set is described as follows: anti-morphine activity (suppression of tail reaction induced by 20 mg/kg i.p. morphine). In kind it is in vivo, ddy male mice. The conditions noted are these: Mus musculus, read-out: ED50 anti-morphine activity. How it is done: (§1) As controls, chlorodiazepoxide which is known as an anti-anxiety agent or minor tranquilizer and a known Compound 40 were used. The results are summarized in terms of 50% effective dose (ED50, mg/kg P.O.) in Table 1 below.
(§2) The animals used were ddy male mice (weighing 20 to 22 g) and they were tested for anti-fighting and anti-morphine actions as indications of anti-anxiety action. The anti-fighting activity of the test compound was evaluated by its suppressing or taming effect against fighting which was developed by applying an electric shock (28 V-DC, 4-5 mA, 3 min.) through a grid to the foot of the animal [R. E. Tedeschi, D. H. Tedeschi, A. Mucha, L. Cook, P. A. Mattis, E. J. Fellows, J. Pharmacol. exp. Therap., 125, 28 (1959)] The anti-morphine activity was evaluated according to the method of Takagi et al. by the suppressing effect against a tail reaction induced by administration of 20 mg/kg i.p. of morphine [H. Takagi, T. Kamioka, S. Kobayashi, Y. Suzuki and K. Tachikawa, Japanese J. of Pharmacology, 66, 107 (1970)].

The test system of data set [2] is fighting developed by electric shock. As to the kind of experiment: anti-fighting activity (suppressing or taming effect against electric foot shock induced fighting). In kind it is in vivo, ddy male mice. The conditions noted are these: Mus musculus, 0.05 h, read-out: ED50 taming effect. How it is done:
as §1, §2

The nature of data set [3]: muscle relaxant action, traction test. In kind it is in vivo, ddy male mice. To be noted: Mus musculus, po, read-out: ED50 traction test. How it is done: as §1, §2
Muscle relaxant action was evaluated by a traction test [S. Courvoisier, R. Ducrot, L. Julou, "Psychotropic Drugs" Ed. by S. Garattini, V. Ghetti, p. 313 (Elsevier) 1957].

Data set [4] is described as follows: LD50 (Litchfield-Wilcoxon method). The conditions noted are these: mouse, in vivo, PO, mice. How it is done: as §2
The values for LD50 were calculated by the Litchfield-Wilcoxon method [J. T. Litchfield and F. Wilcoxon, J. Pharmacol. exp. Therap., 96, 99 (1949)].

For data set [5], the system named is anti-fighting and anti-morphine actions. The data set is described as follows: anti-anxiety activity (anti-fighting and anti-morphine actions as indications). In kind it is in vivo, ddy male mice. The conditions noted are these: PO, mice; versus chlorodiazepoxide and Compound 40. How it is done:
as §1, §2

[6] abbreviates: PO, mice, morphine 20 mg/kg i.p.
Where [7] appears, read: PO, mice, electric shock 28 V-DC, 4-5 mA, 3 min.

Each structure is given as a SMILES string. Like-named read-outs stand apart in the source and are kept apart here.

Turning to `CNC1=Nc2ccc(Cl)cc2C(c2ccccc2)=[N+]([O-])C1` [Chlorodiazepoxide, reference compound], the ED50 in data set [1] (po) turned out to be 13 mg/kg; in data set [2] (po) it was 12.5 mg/kg; in data set [3], 8.3 mg/kg. Besides, in data set [4], the 50% lethal dose (LD50) was determined as 720 mg/kg.

With `c1ccc(N2CCN(CCCOc3ccc4c(c3)CCC4)CC2)cc1` [Compound 1, 5-[3-(4-phenyl-1-piperazinyl)propoxy]indane], the ED50 in data set [1] (setting [6]) came out at 6.3 mg/kg; in data set [2] (setting [7]) it was 6.6 mg/kg; in data set [3], 14.1 mg/kg. Besides, the LD50 in data set [4] is over 1500 mg/kg. Also, the “anti-anxiety activities compared with controls” value in data set [5] is “superior to those of chlorodiazepoxide and Compound 40”.

Turning to `Fc1ccc(N2CCN(CCCOc3ccc4c(c3)CCC4)CC2)cc1` [Compound 4, 5-{3-[4-(4-fluorophenyl)-1-piperazinyl]propoxy}indane], the ED50 was found to be 6 mg/kg in data set [1] (setting [6]), 7.5 mg/kg in data set [2] (setting [7]) and 28 mg/kg in data set [3]. For the same compound, the LD50 in data set [4] was over 2000 mg/kg. In addition, the “anti-anxiety activities compared with controls” value in data set [5] was “superior to those of chlorodiazepoxide and Compound 40”.

As for `Fc1ccc(N2CCN(CCCCOc3ccc4c(c3)CCC4)CC2)cc1` [Compound 5, 5-{4-[4-(4-fluorophenyl)-1-piperazinyl]butoxy}indane], the 50% effective dose (ED50) in data set [1] (setting [6]) was determined as 11.1 mg/kg; in data set [2] (setting [7]), 12 mg/kg; in data set [3], 21.5 mg/kg. This compound gave a median lethal dose (LD50) in data set [4] of over 1100 mg/kg. Besides, in data set [5], the “anti-anxiety activities compared with controls” value was “superior to those of chlorodiazepoxide and Compound 40”.

In the case of `Clc1cccc(N2CCN(CCCOc3ccc4c(c3)CCC4)CC2)c1` [Compound 17], the values for the 50% effective dose (ED50) in data set [1] (setting [6]), in data set [2] (setting [7]) and in data set [3] were 15.5 mg/kg, 12.6 mg/kg and 45 mg/kg, respectively. Further, the LD50 in data set [4] is over 2000 mg/kg. Moreover, the “anti-anxiety activities compared with controls” value in data set [5] was “superior to those of chlorodiazepoxide and Compound 40”.

As to `Fc1cc2c(cc1OCCCN1CCN(c3ccccc3)CC1)CCC2` [Compound 18, 6-fluoro-5-[3-(4-phenyl-1-piperazinyl)propoxy]indane], the results for the median effective dose (ED50) in data set [1] (setting [6]), in data set [2] (setting [7]) and in data set [3] were 10.6 mg/kg, 2.9 mg/kg and 14.5 mg/kg, respectively. In data set [4], this compound registered a 50% lethal dose (LD50) of over 2000 mg/kg. Also, in data set [5], the “anti-anxiety activities compared with controls” value was “superior to those of chlorodiazepoxide and Compound 40”.

As for `Fc1ccc(N2CCN(CCCOc3cc4c(cc3F)CCC4)CC2)cc1` [Compound 19, 6-fluoro-5-{3-[4-(4-fluorophenyl)-1-piperazinyl]propoxy}indane], the ED50 worked out at 12.5 mg/kg in data set [1] (setting [6]), 1 mg/kg in data set [2] (setting [7]) and 17.5 mg/kg in data set [3]. Besides, the median lethal dose (LD50) in data set [4] was over 2000 mg/kg. In addition, in data set [5], the “anti-anxiety activities compared with controls” value was “superior to those of chlorodiazepoxide and Compound 40”.

Turning to `Fc1cc2c(cc1OCCCN1CCN(c3cccc(Cl)c3)CC1)CCC2` [Compound 21, 6-fluoro-5-{3-[4-(3-chlorophenyl)-1-piperazinyl]propoxy}indane], the ED50 in data set [1] (setting [6]) was 13.8 mg/kg; in data set [2] (setting [7]) it was 14.5 mg/kg; in data set [3] it was 88 mg/kg. In data set [4], this compound showed a median lethal dose (LD50) of 1500 to 2000 mg/kg. The “anti-anxiety activities compared with controls” value in data set [5] was “superior to those of chlorodiazepoxide and Compound 40”.

`Cc1cc2c(cc1OCCCN1CCN(c3ccccc3)CC1)CCC2` [Compound 24, 6-methyl-5-[3-(4-phenyl-1-piperazinyl)propoxy]indane]: the median effective dose (ED50) in data set [1] (setting [6]) was 16 mg/kg; in data set [2] (setting [7]), 8.5 mg/kg; in data set [3] it was 46 mg/kg. The compound also returned a 50% lethal dose (LD50) in data set [4] of over 2000 mg/kg. Besides, the “anti-anxiety activities compared with controls” value in data set [5] is “superior to those of chlorodiazepoxide and Compound 40”.

In the case of `COc1cc2c(cc1OCCCN1CCN(c3ccc(F)cc3)CC1)CCC2` [Compound 30, 6-methoxy-5-{3-[4-(4-fluorophenyl)-1-piperazinyl]propoxy}indane], the ED50 in data set [1] (setting [6]) was determined as 10.2 mg/kg; in data set [2] (setting [7]), 13 mg/kg; in data set [3] it was 12.5 mg/kg. This compound gave an LD50 in data set [4] of over 1000 mg/kg. In data set [5], the “anti-anxiety activities compared with controls” value is “superior to those of chlorodiazepoxide and Compound 40”.

In the case of `O=C(CCCN1CCN(c2ccc(F)cc2)CC1)c1ccc2c(c1)CCC2` [Compound 40, reference compound], the ED50 worked out at 15.5 mg/kg in data set [1] (setting [6]), 20 mg/kg in data set [2] (setting [7]) and 57 mg/kg in data set [3]. For the same compound, the LD50 in data set [4] was 1000 to 1500 mg/kg.
